Where a SMILES comes first, the peptide text is derived from it. [ ]: non-standard residue; d: D form. pGlu = O=C1CC[C@@H](C(=O)O)N1
What was measured:
[1] = test system: grass carp pituitary cells; test: qRT-PCR of reproductive hormone genes in pituitary cells; format: cell-based, grass carp (Ctenopharyngodon idellus)
Experimental: The preparation of grass carp pituitary cells was performed as mentioned above. After drug treatment, the total RNA of these cells was isolated by TRIzol reagent and reverse transcribed into cDNA with Hifair™ III 1st Strand cDNA Synthesis Kit. The transcript levels of several anorectic peptides (POMCb, CART2, UTS1, NMBa, NMBb, and Lepr) and reproductive genes (GtHα, LHβ, FSHβ, INHBa, SgII, DRD2) were detected by using an ABI 7500 quantitative real-time PCR (qRT-PCR) system (Biosystems, USA) (information of primers for target genes is listed in Supplementary Table S3 ). In this process, a serial gradient dilution of plasmid DNA of these genes was used as a standard for data calibration. The conditions of qRT-PCR were set to 10 min, 95°C, for pre-degeneration; 15 s, 95°C, for degeneration; 30 s, 55°C–60°C, for annealing; 30 s, 72°C, for extending; and 20 s, 82°C, for signal detection with 40 cycles. Finally, the melt curve obtained through each test was used to verify and check the reliability and specificity of the corresponding qRT-PCR.
The transcript level was detected using qRT-PCR by ABI 7500 software, while the data calibration of each reaction was performed through standard curves with the dynamic range of 10^5 and correlation coefficient >0.95. The transcript level of β-actin was used as an internal control, and target gene mRNA expression was normalized and calculated as a percentage of the mean value (as “% Ctrl”). Based on merging four to eight replicates (as mean ± SEM), the data were analyzed with a one-way ANOVA to differentiate the significant differences from other treatment experiments. The SPSS Statistics 26.0 software was used to do a Dunnett’s post-hoc test. […] The different letters represent a significant difference at p < 0.05 between groups.
To further verify the reproductive function of GnRHs, time- and dose-dependent tests were performed to detect GnRH2- or GnRH3-regulated GtHα, LHβ, FSHβ, INHBa, SgII, and DRD2 mRNA expression in grass carp pituitary cells. […] In the dose-dependent test, a continuous gradient dilution of GnRH2 (0.1–1,000 nM) or GnRH3 (0.1–1,000 nM) was incubated with grass carp pituitary cells for 24 h.
Figure 5 Regulation of reproductive hormone gene mRNA expression by GnRH2 and GnRH3 in grass carp pituitary cells. (A) Time-course experiment of grass carp GnRH2 (1 μM) and GnRH3 (1 μM) on GtHα, LHβ, FSHβ, INHBa, SgII, and DRD2 mRNA expression in grass carp pituitary cells. (B) Dose dependence of a 24-h treatment with increasing levels of GnRH2 and GnRH3 (0.1–1,000 nM) on GtHα, LHβ, FSHβ, INHBa, SgII, and DRD2 mRNA expression in grass carp pituitary cells. After drug treatment, the pituitary cells were extracted to total RNA, reversed transcribed, and used for RT-PCR to detect the target genes’ mRNA expression. […] The different letters represent a significant difference at p < 0.05 between groups (ANOVA followed by a Dunnett test).

goldfish = test system: goldfish; set-up: method as in PMID 7507838, PMID 8045371; conditions: sexually regressed animals, ref [34], [35]; cited from earlier work
pituitary = conditions: teleost; ref [5], [10]; cited from earlier work
Excerpt: Subsequently, GnRH2 had been firstly found in chicken so that this variant was also named as chicken GnRH (cGnRH) ([3]). In addition, the third GnRH variant (GnRH3) was an ubiquitous and unique subtype existing in fish ([3]), which was primitively discovered in salmon so that it was named as salmon GnRH (sGnRH) ([4]). Multiple GnRH variants (two or three forms) are present in all teleosts ([5]), but the receptor selectivity a ...

[2] = 1 μM, time-dependent, Figure 5A

Compound: CC(C)C[C@H](NC(=O)[C@H](Cc1c[nH]c2ccccc12)NC(=O)CNC(=O)[C@H](Cc1ccc(O)cc1)NC(=O)[C@H](CO)NC(=O)[C@H](Cc1c[nH]c2ccccc12)NC(=O)[C@H](Cc1c[nH]cn1)NC(=O)[C@@H]1CCC(=O)N1)C(=O)N1CCC[C@H]1C(=O)NCC(N)=O [GnRH3] ([pGlu]HWSYGWLPG-NH2)
- effect on DRD2 mRNA expression, time course [1, 2]: inhibit
- effect on GtHα, LHβ, FSHβ, INHBa, and SgII mRNA expression, time course [1, 2]: significantly induce
- effect on DRD2 mRNA expression, dose test ([1]; 0.1–1,000 nM (all treated doses), 24 h, Figure 5B): significantly inhibit
- effect on GtHα, LHβ, FSHβ, INHBa, and SgII mRNA expression, dose dependence ([1]; 0.1–1,000 nM, 24 h, dose-dependent, Figure 5B): significantly induce
- LH-releasing activity (goldfish): potent LH-releasing activity
- effect on LH and FSH secretion in the pituitary (pituitary): could stimulate

From article PMC9595134, “Novel pituitary actions of GnRH in teleost: The link between reproduction and feeding regulation” (Frontiers in Endocrinology, 2022)
